Measurements: patent US20250059231A1, “Protease inhibitors” (priority 2021, published 2025)
Where a SMILES comes first, the peptide text is derived from it. [ ]: non-standard residue; d: D form. The star is where a group is joined. Arachidoyl = CCCCCCCCCCCCCCCCCCCC(=O)*; Palmitoyl = CCCCCCCCCCCCCCCC(=O)*; hPhe = N[C@@H](CCc1ccccc1)C(=O)O

What follows are molecules tested against T1, WNV protease (West Nile virus, UniProt P06935) (assay: WNV protease assay (analogous procedure)). Settings: read-out: IC50 for WNNV.
T1 construct: a trypsin-like serine protease domain in the N-terminal region of the flaviviral NS3 proteins
T1 sequence (P06935 1424-1463): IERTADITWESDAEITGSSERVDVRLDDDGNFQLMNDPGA
T1 sequence (P06935 1502-1679): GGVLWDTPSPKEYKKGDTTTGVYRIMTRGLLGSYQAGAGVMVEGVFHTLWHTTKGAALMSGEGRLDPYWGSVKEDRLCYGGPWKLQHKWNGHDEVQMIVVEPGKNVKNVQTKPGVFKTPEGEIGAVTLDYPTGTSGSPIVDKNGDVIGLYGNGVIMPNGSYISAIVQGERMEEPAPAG
Assay type: biochemical

| SMILES | IC50 |
| --- | --- |
| CCCCCCCCCCCCCCCC(=O)N[C@@H](CCCCN)C(=O)N[C@@H](C)C(=O)N[C@@H](C)C(=O)N[C@@H](CCc1ccccc1)C(N)=O [compound 90] (Palmitoyl-KAA[hPhe]-NH2) | ≤ 40 µM |
| CCCCCCCCCCCCCCCCCCCC(=O)N[C@@H](CCCCN)C(=O)N[C@@H](C)C(=O)N[C@@H](C)C(=O)N[C@H](CCCCN)C(N)=O [compound 132] (Arachidoyl-KAA[dK]-NH2) | ≤ 40 µM |
| CCCCCCCCCCCCCCCC(=O)N[C@@H](CCCCN)C(=O)N1CCC[C@H]1C(=O)N[C@@H](C)C(=O)N[C@@H](CCCCN)C(N)=O [compound 156] (Palmitoyl-KPAK-NH2) | ≤ 40 µM |
| CCCCCCCCCCCCCCCC(=O)N[C@@H](CCCCN)C(=O)N[C@@H](C)C(=O)N[C@@H](Cc1cnc[nH]1)C(N)=O [compound 167] (Palmitoyl-Lys-Ala-His-NH2) | ≤ 40 µM |
| CCCCCCCCCCCCCCCC(=O)N[C@@H](CCCCN)C(=O)N[C@@H](C)C(=O)N[C@@H](CCCCN)C(=O)c1ccccc1 [compound 174] | ≤ 40 µM |
| CCCCCCCCCCCCCCCC(=O)N[C@@H](CCCCN)C(=O)N[C@@H](C)C(=O)N[C@@H](CCCCN)C(=O)C(N)=O [compound 176] | ≤ 40 µM |

These molecules were tested against T2, DENV protease (Dengue virus type 2, UniProt P29990) (assay: biochemical). Settings: at 1 μM; read-out: inhibition of DENV.
T2 construct: The virus-encoded dengue protease comprises the amino-terminal 180 amino acids of NS3 (NS3pro) of the polyprotein
T2 sequence (P29990 1398-1437): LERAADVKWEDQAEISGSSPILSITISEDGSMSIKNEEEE
T2 sequence (P29990 1476-1653): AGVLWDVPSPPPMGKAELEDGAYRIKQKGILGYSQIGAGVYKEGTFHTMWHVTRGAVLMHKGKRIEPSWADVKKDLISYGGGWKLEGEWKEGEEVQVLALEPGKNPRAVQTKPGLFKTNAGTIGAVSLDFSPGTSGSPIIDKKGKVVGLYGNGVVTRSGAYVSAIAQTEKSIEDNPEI
Description: (§1) Dilutions were made starting from 10 mM stock solutions in DMSO and final concentrations were measured in triplicates. The inhibitors were preincubated for 15 min with DENV protease (100 nM) in the assay buffer (50 mM Tris-HCl pH 9.0, ethylene glycol (10% v/v), and 0.0016% Brij 58). The enzymatic reaction was initiated by the addition of the FRET substrate (final concentration 50 μM) to obtain a final assay volume of 100 μL per well. The enzymatic activity was monitored for 15 min and determined as a slope of relative fluorescence units per second (RFU/s) for each concentration. The mean of the triplicates were plotted against the corresponding concentration in CDDVault to determine the IC50-values. Analogous procedures were used to determine the inhibitory potency on WNV (Kühl et al., J. Med. Chem. 2020, 63 (15): 8179-8197) and ZIKA protease (Nitsche et al., ACS Med. Chem. Lett. 2019 Feb. 14; 10 (2): 168-174). For selectivity screening of active candidates, similar biochemical assays with human serine proteases trypsin (Weigel et al., J. Med. Chem. 2015, 58 (19), 7719-7733.) and/or thrombin (Nitsche et al., J. Med. Chem. 2013, 56 (21), 8389-8403) were used.

| SMILES | inhibition at 1 µM |
| --- | --- |
| CCCCCCCCCCCCCCCCCCCC(=O)N[C@@H](CCCCN)C(=O)N[C@@H](C)C(=O)N[C@@H](C)C(=O)N[C@H](CCCCN)C(N)=O [compound 132] (Arachidoyl-KAA[dK]-NH2) | ≥ 20% |
| CCCCCCCCCCCCCCCC(=O)N[C@@H](CCCCN)C(=O)N[C@@H](C)C(=O)N[C@@H](Cc1cnc[nH]1)C(N)=O [compound 167] (Palmitoyl-Lys-Ala-His-NH2) | ≥ 20% |

Same assay, conditions: at 50 μM; read-out: inhibition of DENV

| SMILES | inhibition at 50 µM |
| --- | --- |
| CCCCCCCCCCCCCCCC(=O)N[C@@H](CCCCN)C(=O)N[C@@H](C)C(=O)N[C@@H](C)C(=O)N[C@@H](CCc1ccccc1)C(N)=O [compound 90] (Palmitoyl-KAA[hPhe]-NH2) | ≥ 25% |
| CCCCCCCCCCCCCCCCCCCC(=O)N[C@@H](CCCCN)C(=O)N[C@@H](C)C(=O)N[C@@H](C)C(=O)N[C@H](CCCCN)C(N)=O [compound 132] (Arachidoyl-KAA[dK]-NH2) | ≥ 25% |
| CCCCCCCCCCCCCCCC(=O)N[C@@H](CCCCN)C(=O)N1CCC[C@H]1C(=O)N[C@@H](C)C(=O)N[C@@H](CCCCN)C(N)=O [compound 156] (Palmitoyl-KPAK-NH2) | ≥ 25% |
| CCCCCCCCCCCCCCCC(=O)N[C@@H](CCCCN)C(=O)N[C@@H](C)C(=O)N[C@@H](CCCCN)C(=O)c1ccccc1 [compound 174] | ≥ 25% |
| CCCCCCCCCCCCCCCC(=O)N[C@@H](CCCCN)C(=O)N[C@@H](C)C(=O)N[C@@H](CCCCN)C(=O)C(N)=O [compound 176] | ≥ 25% |

What follows are molecules tested against T3, ZIKA protease (Zika virus, UniProt Q32ZE1) (assay: biochemical). Settings: not given.
T3 construct: a trypsin-like serine protease domain in the N-terminal region of the flaviviral NS3 proteins
T3 sequence (Q32ZE1 1499-1676): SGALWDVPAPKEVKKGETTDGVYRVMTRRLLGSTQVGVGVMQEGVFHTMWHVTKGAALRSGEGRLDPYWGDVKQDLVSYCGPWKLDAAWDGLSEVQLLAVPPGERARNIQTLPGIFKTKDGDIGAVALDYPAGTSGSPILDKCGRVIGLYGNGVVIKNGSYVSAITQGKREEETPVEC
T3 sequence (Q32ZE1 1421-1460): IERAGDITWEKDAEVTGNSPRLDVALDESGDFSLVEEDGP
Description: as §1, with “By catalytic activity of the protease, the cleaved substrate results in increased fluorescence that can be monitored using a BMG Labtech Fluostar OPTIMA Microtiter fluorescence plate reader (excitation wavelength of 320 nm and a monitored emission wavelength of 405 nm). Dilutions” for “Dilutions”

| SMILES | IC50 |
| --- | --- |
| CCCCCCCCCCCCCCCC(=O)N[C@@H](CCCCN)C(=O)N[C@@H](C)C(=O)N[C@@H](Cc1cnc[nH]1)C(N)=O [compound 167] (Palmitoyl-Lys-Ala-His-NH2) | ≤ 25 µM |
| CCCCCCCCCCCCCCCC(=O)N[C@@H](CCCCN)C(=O)N[C@@H](C)C(=O)N[C@@H](CCCCN)C(=O)C(N)=O [compound 176] | ≤ 25 µM |

Same assay, conditions: at 1 μM; read-out: inhibition of ZIKV

| SMILES | inhibition at 1 µM |
| --- | --- |
| CCCCCCCCCCCCCCCC(=O)N[C@@H](CCCCN)C(=O)N[C@@H](C)C(=O)N[C@@H](Cc1cnc[nH]1)C(N)=O [compound 167] (Palmitoyl-Lys-Ala-His-NH2) | ≥ 10% |

Same assay, conditions: at 50 μM; read-out: inhibition of ZIKV

| SMILES | inhibition at 50 µM |
| --- | --- |
| CCCCCCCCCCCCCCCC(=O)N[C@@H](CCCCN)C(=O)N[C@@H](C)C(=O)N[C@@H](Cc1cnc[nH]1)C(N)=O [compound 167] (Palmitoyl-Lys-Ala-His-NH2) | ≥ 65% |
| CCCCCCCCCCCCCCCC(=O)N[C@@H](CCCCN)C(=O)N[C@@H](C)C(=O)N[C@@H](CCCCN)C(=O)C(N)=O [compound 176] | ≥ 65% |

The molecules below were run against human Thrombin (Homo sapiens, UniProt P00734) (assay: Selectivity screening, human serine protease thrombin). Settings: at 5 μM; read-out: inhibition of human Thrombin.
Assay type: biochemical
Description: as §1, with “By catalytic activity of the protease, the cleaved substrate results in increased fluorescence that can be monitored using a BMG Labtech Fluostar OPTIMA Microtiter fluorescence plate reader (excitation wavelength of 320 nm and a monitored emission wavelength of 405 nm). Dilutions” for “Dilutions”

| SMILES | inhibition at 5 µM |
| --- | --- |
| CCCCCCCCCCCCCCCC(=O)N[C@@H](CCCCN)C(=O)N[C@@H](C)C(=O)N[C@@H](C)C(=O)N[C@@H](CCc1ccccc1)C(N)=O [compound 90] (Palmitoyl-KAA[hPhe]-NH2) | < 5% |
| CCCCCCCCCCCCCCCCCCCC(=O)N[C@@H](CCCCN)C(=O)N[C@@H](C)C(=O)N[C@@H](C)C(=O)N[C@H](CCCCN)C(N)=O [compound 132] (Arachidoyl-KAA[dK]-NH2) | < 5% |
| CCCCCCCCCCCCCCCC(=O)N[C@@H](CCCCN)C(=O)N[C@@H](C)C(=O)N[C@@H](Cc1cnc[nH]1)C(N)=O [compound 167] (Palmitoyl-Lys-Ala-His-NH2) | < 5% |
| CCCCCCCCCCCCCCCC(=O)N[C@@H](CCCCN)C(=O)N[C@@H](C)C(=O)N[C@@H](CCCCN)C(=O)C(N)=O [compound 176] | < 5% |

Same assay, conditions: read-out: inhibition of human Thrombin

| SMILES | inhibition at 5 µM |
| --- | --- |
| CCCCCCCCCCCCCCCC(=O)N[C@@H](CCCCN)C(=O)N[C@@H](C)C(=O)N[C@@H](CCCCN)C(=O)c1ccccc1 [compound 174] | < 5% |

These molecules were tested against T1, WNV protease (assay: WNV protease assay (analogous procedure)). Settings: at 1 μM; read-out: inhibition of WNNV.
Assay type: biochemical
Description: as §1, with “By catalytic activity of the protease, the cleaved substrate results in increased fluorescence that can be monitored using a BMG Labtech Fluostar OPTIMA Microtiter fluorescence plate reader (excitation wavelength of 320 nm and a monitored emission wavelength of 405 nm). Dilutions” for “Dilutions”

| SMILES | inhibition at 1 µM |
| --- | --- |
| CCCCCCCCCCCCCCCCCCCC(=O)N[C@@H](CCCCN)C(=O)N[C@@H](C)C(=O)N[C@@H](C)C(=O)N[C@H](CCCCN)C(N)=O [compound 132] (Arachidoyl-KAA[dK]-NH2) | ≥ 10% |

Same assay, conditions: at 50 μM

| SMILES | inhibition at 50 µM |
| --- | --- |
| CCCCCCCCCCCCCCCC(=O)N[C@@H](CCCCN)C(=O)N[C@@H](C)C(=O)N[C@@H](C)C(=O)N[C@@H](CCc1ccccc1)C(N)=O [compound 90] (Palmitoyl-KAA[hPhe]-NH2) | ≥ 25% |
| CCCCCCCCCCCCCCCCCCCC(=O)N[C@@H](CCCCN)C(=O)N[C@@H](C)C(=O)N[C@@H](C)C(=O)N[C@H](CCCCN)C(N)=O [compound 132] (Arachidoyl-KAA[dK]-NH2) | ≥ 25% |
| CCCCCCCCCCCCCCCC(=O)N[C@@H](CCCCN)C(=O)N[C@@H](C)C(=O)N[C@@H](Cc1cnc[nH]1)C(N)=O [compound 167] (Palmitoyl-Lys-Ala-His-NH2) | ≥ 25% |
| CCCCCCCCCCCCCCCC(=O)N[C@@H](CCCCN)C(=O)N[C@@H](C)C(=O)N[C@@H](CCCCN)C(=O)c1ccccc1 [compound 174] | ≥ 25% |
| CCCCCCCCCCCCCCCC(=O)N[C@@H](CCCCN)C(=O)N[C@@H](C)C(=O)N[C@@H](CCCCN)C(=O)C(N)=O [compound 176] | ≥ 25% |

The molecules below were run against human Trypsin (Homo sapiens, UniProt P07477) (assay: Selectivity screening, human serine protease trypsin). Settings: at 5 μM; read-out: inhibition of human Trypsin.
Assay type: biochemical
Description: as §1, with “By catalytic activity of the protease, the cleaved substrate results in increased fluorescence that can be monitored using a BMG Labtech Fluostar OPTIMA Microtiter fluorescence plate reader (excitation wavelength of 320 nm and a monitored emission wavelength of 405 nm). Dilutions” for “Dilutions”

| SMILES | inhibition at 5 µM |
| --- | --- |
| CCCCCCCCCCCCCCCC(=O)N[C@@H](CCCCN)C(=O)N[C@@H](C)C(=O)N[C@@H](C)C(=O)N[C@@H](CCc1ccccc1)C(N)=O [compound 90] (Palmitoyl-KAA[hPhe]-NH2) | < 10% |

Same assay, conditions: at 25 μM; read-out: inhibition of human Trypsin

| SMILES | inhibition at 25 µM |
| --- | --- |
| CCCCCCCCCCCCCCCC(=O)N[C@@H](CCCCN)C(=O)N[C@@H](C)C(=O)N[C@@H](C)C(=O)N[C@@H](CCc1ccccc1)C(N)=O [compound 90] (Palmitoyl-KAA[hPhe]-NH2) | < 20% |
| CCCCCCCCCCCCCCCCCCCC(=O)N[C@@H](CCCCN)C(=O)N[C@@H](C)C(=O)N[C@@H](C)C(=O)N[C@H](CCCCN)C(N)=O [compound 132] (Arachidoyl-KAA[dK]-NH2) | < 20% |

Same assay, conditions: read-out: inhibition of human Trypsin

| SMILES | inhibition at 5 µM | inhibition at 25 µM |
| --- | --- | --- |
| CCCCCCCCCCCCCCCC(=O)N[C@@H](CCCCN)C(=O)N[C@@H](C)C(=O)N[C@@H](CCCCN)C(=O)c1ccccc1 [compound 174] | < 10% | < 20% |
